Assay results as given in patent publication EP0942896B1, “SUBSTITUTED PHENOLS AND THIOPHENOLS USEFUL AS ANTIOXIDANT AGENTS” (Aventis Pharmaceuticals Inc., priority 1996, dated 1998).
Like-named read-outs stand apart in the source and are kept apart here.

Tests used:
[1] = tested on: oxidation of serum lipids; assay: TBARS assay on serum of treated rats (CuSO4-initiated oxidation); type: in vivo, Male Sprague-Dawley rats; conditions: % of control; thiobarbituric acid reactive substances as nmoles MDA, rat serum; diet 0.3%, 4 days; N = 5
Text: (§1) A typical experiment consists of 4-6 groups of rats (N = 5 per group) with I group being a control which receives no MDL compound and the other groups being treated with 0.3% MDL compound. Some of the compounds are either repeated at 0.3% or evaluated again at the lower dose of 0.1%. House Male Sprague-Dawley rats, 50-100 g, (Harlan Laboratories, Indianapolis, IN) in groups of 5, feeding ad libitum water and Purina Rodent chow (#5002) with or without MDL compound as a dietary admixture for 4 days. Make dietary admixtures (0.3%) by mixing 1.2 grams of an MDL compound with 400 grams of Purina rodent chow (#5002). Mix the MDL compound with approximately 50 grams of food using a mortar and pestle. This is added to the remainder of the food and mixed for 3 hours on a rotary mixer. In the morning of day 5, anesthetize non-fasted rats with carbon dioxide, and collect blood by cardiac puncture. Sacrifice rats by cervical dislocation. Record body weights and liver weights in grams. Record food consumption as grams • day^-1 • rat^-1. Deaths are recorded as mortality. Use aliquots of fresh serum for clinical chemistries, thiobarbituric acid reactive substances (TBARS) and conjugated diene measurements. Freeze aliquots of serum (∼ 0.5mL) and whole livers at -20°C for compound and metabolite concentration determination at a later time.
In this assay the oxidation of serum lipids is initiated with CuSO4, resulting in the formation of aldehydes, such as malondialdehyde (MDA). Upon incubation with thiobarbituric acid, the absorbance of the aldehydes can be detected at 530-540 nm. As stated in the previous example, TBARS values which are lower than control serum values indicate the relative ability of a test compound to inhibit the oxidation of lipids in a sample. Measure TBARS as follows: mix 100µL of serum with 400µL of a 5mmol CuSO4 solution and incubate at 37°C for 3 hr. Stop the reactions by addition of 1.0mL of 20% trichloroacetic acid. Then add 1.0mL of 0.67% thiobarbituric acid in 0.05 N sodium hydroxide, mix, and incubate the samples for 30 min at 90°C. Centrifuge samples briefly to pellet undissolved material, and transfer the supernatants to a 96-well microtiter plate. Measure absorbances at 540 nm using a Biotek model EL311 microplate reader. The nmoles of MDA produced are calculated from a standard curve of 0 to 10 nmoles of MDA prepared from malonaldehyde bis(dimethylacetal). Serum samples from treated rats are compared to serum samples from control rats that received no MDL compound.

[2] = HPLC quantitation of compound and metabolite concentration in rat serum and liver; type: in vivo; conditions: male, Sprague-Dawley, oral, 0.3 % in chow, diet 0.3%, 4 days, mean N = 5
Text: as §1
Determine serum and liver concentrations of parent compound and the metabolites, bisphenol and diphenoquinone, by reverse phase HPLC using a Waters 990 Powerline system. Homegenize livers (1 gram samples) with 5.0mL PBS, pH 7.4, using a Polytron tissue homogenizer at setting 5 for 20-30 seconds. Extract serum or liver homogenates as follows: add 100µL of either serum or homogenate to 2.0mL diethyl ether: ethanol (3:1) while vortexing the tube. Cap the sample tubes and centrifuge for 10 min at 5°C at 3500 rpm in a Beckman GPKR centrifuge with a GH 3.7 rotor. Transfer the supernatants to clean tubes and dry under N2. Reconstitute samples with 200µL of acetonitrile : hexane : 0.1 M ammonium acetate (90: 6.5 : 3.5, by vol.). Then, inject 100µL onto a Waters Deltapak C18-300 Å column, and elute with an 83% acetonitrile : 17% water mobile phase at a flow rate of 1.5mL/min. Record absorbances at the wavelengths of 240, 254, and 420nm. Calculate compound concentrations from known quantities of authentic parent compounds after correction for recovery. […]. Calculate concentrations as µg/mL of serum and µg/g of liver.

VCAM-1 = assay: Inhibition of cytokine-induced VCAM-1 expression in human aortic smooth muscle cells (cell ELISA); type: cell-based; conditions: HASMC, interleukin-4 stimulated, average of three runs, read-out: VCAM-1 (% inh. 50 µM)
Procedure: Plate proliferating human umbilical vein endothelial cells (HUVEC) or human aortic smooth muscle cells (HASMC) from Clonetics (San Diego, CA) onto 96-well plates in 100 µL medium per well at 20,000 cells per cm^2. Maintain the cultures in growth medium (EGM or SMGM2, Clonetics, San Diego, CA) for two days prior to addition of cytokines or drugs. Add cytokines plus or minus compounds for 20 to 24 hours prior to analysis for adhesion molecule levels. Add tumor necrosis factor (Genzyme, Cambridge, MA) to cultures at 500-1000 units/mL to stimulate ICAM-1 expression. Add interleukin-4 (GIBCO-BRL, Gaithersburg, MD) to cultures at 100-200 pg/mL to stimulate VCAM-1 expression. […] Remove the culture medium, and wash the monolayers twice with Hanks buffered saline solution (HBSS) at room temperature. Add the primary antibody (anti-human VCAM-1 from Upstate Biotechnology, Inc., Lake Placid, NY or anti-human ICAM-1 from Immunotech, Inc., Westbrook, ME) to each well (1 µg/mL in HBSS plus 5% newborn calf serum, GIBCO-BRL, Gaithersburg, MD) and incubate at 37°C for 1 hr. Wash the wells twice with HBSS, then add 100 µL of a 1/1000 dilution of goat anti-mouse IgG conjugated to horse radish peroxidase (BioRad, Hercules, CA) in HBSS plus 5% newborn calf serum to each well and incubated for 1 hr at 37°C. Wash the wells three times with HBSS, then add 100 µL of TMB substrate (BioRad, Hercules, CA) to each well. Stop the reaction after blue color develops by addition of 50 µL of IN H2SO4. Measure absorbance at 450 nm with a plate reader.
Table 1 summarizes the ability of selected compounds of this invention to inhibit VCAM-1 and ICAM-1 using human aortic smooth muscle cells (HASMC). In these experiments, the cells were coincubated with interleukin-4 to stimulate VCAM-1 expression and with tumor necrosis factor-alpha to stimulate ICAM-1 expression.

[3] = parent compound concentration in rat liver, read-out: Liver Parent
[4] = parent compound concentration in rat serum, read-out: Serum Parent

Compound	TBARS [1] [%]	concentration at 5 day [2, 3] [ng/g]	concentration at 5 day [2, 4] [ng/mL]	inhibition at 50 µM (VCAM-1) [%]
CC(C)=CCC[C@H](C)CCOc1cc(C(C)(C)C)c(O)c(C(C)(C)C)c1 [MDL 103,294, Phenol, 2,6-bis(1,1-dimethylethyl)-4-[(3,7-dimethyl-6-octenyl)oxy]-, (S)-]	18	64600	21700	–
CC(C)=CCCC(C)CCSc1cc(C(C)(C)C)c(O)c(C(C)(C)C)c1 (stereo not drawn) [MDL 103,960, Phenol, 2,6-bis(1,1-dimethylethyl)-4-[(3,7-dimethyl-6-octenyl)thio]-]	24	47300	8700	33.9 ± 6
CC(C)CCCC(C)CCOc1ccc(O)c(C(C)(C)C)c1 (stereo not drawn) [MDL 104,191, Phenol, 2-(1,1-dimethylethyl)-4-[(3,7-dimethyloctyl)oxy]-]	20	16100	6900	42.9 ± 7
CC(C)=CCC[C@@H](C)CCOc1cc(C(C)(C)C)c(O)c(C(C)(C)C)c1 [MDL 104,535, Phenol, 2,6-bis(1,1-dimethylethyl)-4-[(3,7-dimethyl-6-octenyl)oxy]-,(R)-]	11	60300	16300	26.4 ± 14
